The numbers were not newly measured in US10729766B2 (priority 2013, dated 2020), which cites them from elsewhere.

The conditions of series [1]: mice; single bolus low dose administration.

The structures appear in SMILES notation. Bounds are passed on as bounds.

Consider `O=P1(N(CCCl)CCCl)NCCCO1` (stereo not shown) [Cyclophosphamide, N,N-bis(2-chloroethyl)-1,3,2-oxazaphosphinan-2-amine 2-oxide], for which, in series [1], the “time of effects returning to normal” value is 7 to 10 days and the “time to nadir of effects after administration” value is reported as ≤ 4 days. In addition, the “bioavailability, oral versus parenteral administration” value (human, in vivo, po) is “little difference in bioavailability”. In addition, where the note is “varies between patients”, the “peak plasma levels of the parent” value is 3 to 11 h.
